Results published in publication PMC12028564, “A New Class of BRCA1 Mimetics for ERα-Positive Breast Cancer Therapy: Design, Synthesis, In Silico Screening, In Vitro Assay, and Gene Expression Analysis” (Life, 2025).
Where two headings read alike, the source gives them in different places.

Legend:
MDA-MB-231 cells [1] = system: MDA-MB-231 cells; design: method as in PMID 24278556; conditions: reference drug, reported value; cited from earlier work
Vero cells = experiment: MTT cytotoxicity assay on Vero cells; format: cell-based
From the text: (§1) Vero cells are known for their ability to assess the safety of new compounds and their sensitivity to a wide range of toxic substances. MDA-MB-231 cells are derived from human […] breast cancer tissue. MDA-MB-231 cells provide a reliable method for assessing the toxicity and effectiveness of potential anticancer compounds, especially those that target estrogen receptors or associated pathways. We assessed the anticancer activity of the compounds on Vero cells and MDA-MB-231 using the MTT (3-(4,5-dimethyl thiazol-2yl)-2,5-diphenyl tetrazolium bromide) assay. The MTT assay is one of the most commonly used for cancer drug screening. This is a basic and easy assay for cytotoxicity, and it is one of the most popular cytotoxicity assays in the research laboratory. We plated cells (1 × 10^5/well) in 96-well plates using 0.2 mL of medium per well. We carefully removed the media from the wells for the MTT assay after incubation. After two to three MEM (w/o) FCS washes, 200 µL of MTT (5 mg/mL) was added to each well. We incubated the plates for 6–7 h in a 5% CO^2 incubator to test for cytotoxicity. Following the incubation, we added […] of vehicle (DMSO) to each well, mixed it thoroughly with a micropipette, and left it for 45 s. NADPH-dependent dehydrogenase catalyzes the conversion of tetrazolium salt (MTT) into a purple formazan product in cells. This indicates the presence of metabolically active cells. We placed the solution in the spectrophotometer’s cuvette and recorded the optical density at 595 nm, using DMSO as the blank reference. Measurements were conducted, and the concentration required for 50% inhibition of viability (IC50) was visually determined. A standard graph was constructed, with the drug concentration plotted on the X-axis and relative cell viability on the Y-axis. %Cell Viability=Mean Optical Density of Individual Sample/Mean Optical Density of Control×100

MDA-MB-231 cells [2] = experiment: MTT cytotoxicity assay on MDA-MB-231 cells; format: cell-based, human
From the text: as §1

Cyclin D1 = experiment: RT-qPCR gene expression of Cyclin D1 (ΔΔCt method, GAPDH reference) in MDA-MB-231 cells; format: cell-based, human; conditions: for Cyclin D1 ΔΔCt: versus cell control
From the text: (§2) To determine whether the synthesized compounds were repressing the ER alpha protein or not, we performed gene expression analyses for Cyclin D1 and BCL2 using the real-time quantitative polymerase chain reaction (RT-qPCR). RT-qPCR is an efficient, simple, and low-cost technique to quantify gene expression levels. The delta-delta Ct (ΔΔCt) method is a widely used technique for analyzing real-time quantitative PCR (qPCR) data. We chose three compounds, 9b, 9l, and 9m, based on their lowest IC50 values and conducted gene expression studies for BCL2 and Cyclin D1. We used the GAPDH as a reference gene. We chose primer pairings with the lowest penalty value designed by the Primer Express 2.0 software to obtain the best results.
A 100-picomolar primer stock was prepared utilizing primers of Cyclin D1, BCL2, and GAPDH (Table 6), which were then diluted to a 10-picomolar working stock for use in real-time PCR. RNA was extracted from four samples utilizing the PureLink RNA Mini Kit and quantified using the Biophotometer Plus (Table 3). A total of 1 µg of RNA was taken from the isolated RNA and used for cDNA synthesis with the Takara Prime Script 1st Strand cDNA Synthesis Kit. Each real-time PCR experiment utilized 25 ng of cDNA, 10 picomolar forward and reverse primers, and a final reaction volume of 20 µL. Cyclin D1, BCL2, and GAPDH average Ct values were extracted from each sample’s replicates. Then, using the formula below (1), we determined the ΔCt from the mean Ct values of Cyclin D1 and BCL2 with reference to the reference gene’s GAPDH mean Ct values. In the real-time qPCR, the temperature was set at 95 °C for 10 min (denaturation), then 40 cycles at 95 °C for 15 s and 60 °C for one minute. Each sample was processed in triplicate in six-well plates for the qPCR analysis using the Qiagen kit. The comparative Ct was used for quantification analysis, and the Ct values (Ct1, Ct2, and Ct3) were averaged.ΔCt = Ct (gene of interest) − Ct (housekeeping gene)(1)
We calculated the ΔΔCt from the ΔCt values of the Cyclin D1 and BCL2. The […] were calculated using the following Formula (2).ΔΔCt = ΔCt (Sample) − ΔCt (Control)(2)
Finally, we calculated the fold gene expression for CyclinD1 and BCL2 with reference to the reference gene GAPDH using the following Formula (3) (Table 5).Fold gene expression = 2^−ΔΔCt(3)

BCL2 = experiment: RT-qPCR gene expression of BCL2 (ΔΔCt method, GAPDH reference) in MDA-MB-231 cells; format: cell-based, human; conditions: versus cell control
From the text: as §2, with “We chose primer pairings with the lowest penalty value designed by the Primer Express 2.0 software to obtain the best results.” left out
A 100-picomolar primer stock was prepared utilizing primers of Cyclin D1, BCL2, and GAPDH (Table 6), which were then diluted to a 10-picomolar working stock for use in real-time PCR. RNA was extracted from four samples utilizing the PureLink RNA Mini Kit and quantified using the Biophotometer Plus (Table 3). […] Then, using the formula below (1), we determined the ΔCt from the mean Ct values of Cyclin D1 and BCL2 with reference to the reference gene’s GAPDH mean Ct values. […] The comparative Ct was used for quantification analysis, and the Ct values (Ct1, Ct2, and Ct3) were averaged.ΔCt = Ct (gene of interest) − Ct (housekeeping gene)(1)
We calculated the ΔΔCt from the ΔCt values of the Cyclin D1 and BCL2. […]

O=C(c1ccc(OCCN2CCCCC2)cc1)c1c(-c2ccc(O)cc2)sc2cc(O)ccc12 [Raloxifene]
IC50 (MDA-MB-231 cells [1]): 13.7 µM

Oc1cc(/C=N/C(=S)N/N=c2\cc(O)c3ccccc3o2)cc(O)c1O [Compound 9n]
IC50 (Vero cells): 119 µM
IC50 (MDA-MB-231 cells [2]): 47.7 µM

Cc1c/c(=N\NC(=S)/N=C/c2ccc(Cl)cc2Cl)oc2cc(O)ccc12 [Compound 7a]
IC50 (Vero cells): 513 µM
IC50 (MDA-MB-231 cells [2]): 357 µM

Oc1c/c(=N\NC(=S)/N=C/c2ccc(Br)cc2)oc2ccccc12 [Compound 9m]
IC50 (Vero cells; Chlorocebus sabaeus): 68.7 µM
IC50 (MDA-MB-231 cells [2]; Homo sapiens): 42.1 µM
Cyclin D1 ΔΔCt (Cyclin D1): 2.03
BCL2 ΔΔCt (BCL2): 1.41

O=[N+]([O-])c1ccc(/C=N/C(=S)N/N=c2\cc(O)c3ccccc3o2)cc1 [Compound 9l]
IC50 (Vero cells; Chlorocebus sabaeus): 87.7 µM
IC50 (MDA-MB-231 cells [2]; Homo sapiens): 35.1 µM
Cyclin D1 ΔΔCt (Cyclin D1): 2.2

Oc1c/c(=N\NC(=S)/N=C/c2ccc(Cl)cc2)oc2ccccc12 [Compound 9b]
IC50 (Vero cells; Chlorocebus sabaeus): 60.9 µM
IC50 (MDA-MB-231 cells [2]; Homo sapiens): 14.5 µM
Relative gene expression CyclinD1 (Cyclin D1; control = 1): 1.485
Cyclin D1 2^(−ΔΔCt) (Cyclin D1; fold gene expression): 1.485
Cyclin D1 ΔΔCt (Cyclin D1): −0.57
BCL2 ΔΔCt (BCL2): 1.42

Cc1c/c(=N\NC(=S)/N=C/c2ccc(Br)cc2)oc2cc(O)ccc12 [Compound 7m]
IC50 (Vero cells): 149 µM
IC50 (MDA-MB-231 cells [2]): 90.5 µM

Oc1c/c(=N\NC(=S)/N=C/c2cccc3ccccc23)oc2ccccc12 [Compound 9c]
IC50 (Vero cells): 87.4 µM
IC50 (MDA-MB-231 cells [2]): 61.5 µM

COc1ccc(/C=N/C(=S)N/N=c2\cc(C)c3ccc(O)cc3o2)cc1 [Compound 7i]
IC50 (Vero cells): 292 µM
IC50 (MDA-MB-231 cells [2]): 237 µM
